Laboratory results taken from patent publication US11980211B2, “Verbascoside and related compounds for sweetness enhancement” (International Flavors & Fragrances Inc., priority 2018, dated 2024).

How the values were obtained:
[1] = Flavor profile of sucrose solution with added verbascoside or isoverbascoside; details: sucrose solution (4%)
Description: A sucrose solution (4%) was prepared in water. Each of verbascoside and isoverbascoside solutions of different concentrations was prepared in ethanol solution in water (50%). Verbascoside and isoverbascoside were evaluated at 1 and 200 ppm, respectively.
The flavor profile of the sucrose solution with added verbascoside and isoverbascoside is reported in the following: […]

[2] = Flavor profile of Luo Han Guo solution with added verbascoside or isoverbascoside; details: Luo Han Guo solution (120 ppm)
Description: A Luo Han Guo (Biovittoria Ltd., New Zealand) solution was prepared in water (120 ppm). Verbascoside and isoverbascoside solutions were prepared as above (EXAMPLE II). The flavor profile of the Luo Han Guo solution with added verbascoside and isoverbascoside is reported in the following: […]

CC1OC(OC2C(O)C(COC(=O)/C=C/c3ccc(O)c(O)c3)OC(OCCc3ccc(O)c(O)c3)C2O)C(O)C(O)C1O (stereo not shown) [Isoverbascoside, isoverbascoside]
overall effect (summary) [1]: enhanced overall mouthfeel | overall effect (summary) [2]: enhanced overall mouthfeel and suppressed Luo Han Guo's lingering off-taste

CC1OC(OC2C(O)C(OCCc3ccc(O)c(O)c3)OC(CO)C2OC(=O)/C=C/c2ccc(O)c(O)c2)C(O)C(O)C1O [Verbascoside, (E)-2-(3,4-dihydroxyphenyl)ethyl 3-O-(6-deoxy-α-L-mannopyranosyl)-4-[3-(3,4-dihydroxyphenyl)-2-propenoate]-β-D-Glucopyranoside]
overall effect (summary) [1]: exhibited particular effect in sweetness enhancement | overall effect (summary) [2]: exhibited particular effect in sweetness enhancement
